In brackets after ≈: the same amount, converted by molar mass. Where a SMILES comes first, the peptide text is derived from it. [ ]: non-standard residue; d: D form. Sar = CNCC(=O)O
Key:
peptide transporters = assay: [3H]-GlySar cellular uptake in MDCK-MDR1 cells; format: cell-based; settings: DPBS pH 7.4, 37 °C
[1] = Aqueous solubility studies
MDCK-WT cells = assay: Cytotoxicity by LDH assay; format: cell-based

Molecule: CN(CC(=O)O)C(=O)CN [Gly-Sar] (H-Gly-[Sar]-OH)
- [3H]-GlySar uptake in the presence of compound (percentage of control) (peptide transporters; 1 mM): 40%
- [3H]-GlySar uptake in the presence of compound (percentage of control) (peptide transporters; 2 mM): 30%

Molecule: C[C@]12C=CC(=O)C=C1CC[C@@H]1[C@@H]2[C@@H](O)C[C@@]2(C)[C@H]1CC[C@]2(O)C(=O)CO [prednisolone, Prednisolone]
- [3H]-GlySar uptake in the presence of compound (percentage of control) (peptide transporters; 100 µM): No significant inhibition
- solubility at 4 h [1]: 310 ± 30 µg/mL (≈ 860 µM)
- Cytotoxic effects (LDH release) (MDCK-WT cells; 5–250 µM, 4 h): did not generate any cytotoxic effects

Molecule: Triton x-100
- Cytotoxicity (LDH release) (MDCK-WT cells; 1%, positive control): displayed significant cytotoxicity
- Increase in absorbance (LDH) versus negative control (MDCK-WT cells; 1%, positive control): About 5 fold

From publication PMC4535455 (International journal of pharmaceutics, 2015)
